Measured values as given in patent publication US20230126568A1, “PRODUCTION METHOD FOR […] AND UTILIZATION THEREOF” (FUJIFILM Corporation, priority 2020, published 2023).
Like-named read-outs stand apart in the source and are kept apart here.

What was measured:
[1] = Midazolam permeability of intestinal epithelial cells (apical to basolateral, cell culture insert); type: in vitro ADME; conditions: human; for Papp A→B at 60 min, 10 μmol/L: 10 μmol/L midazolam apical pH 6.5, basolateral pH 7.4, 37° C., read-out: Apparent permeability coefficient; for Papp at 60 min, 10 μmol/L: read-out: Apparent permeability coefficient after correction
Procedure: The midazolam permeability of the intestinal epithelial cells obtained in Comparative Examples 1 and Examples 1 to 5 was evaluated. After the end of the induction of differentiation, HBSS (pH 6.5) was added to the apical side and HBSS (pH 7.4) was added to the lower bottom (basolateral) side, and pre-incubation was carried out at 37° C. for 60 minutes. Then, HBSS (pH 6.5) containing 10 μmol/L midazolam was added to the apical side, and HBSS (pH 7.4) was added to the lower bottom (basolateral) side, and incubation was carried out at 37° C. for 60 minutes. A sample was collected from the lower bottom (basolateral) side every 15 minutes. The amount of each compound (unchanged form) was quantified using a liquid chromatography-mass spectrometer (LC-MS/MS). The apparent permeability coefficient (Papp) was calculated from the quantification result.
The apparent permeability coefficient was corrected by using the scaling factor x for the apparent permeability coefficient of Example 4 obtained in Test Example 6. At this time, the following expression was used.
The permeation amount per unit time=(the B60 substrate amount−x ×the difference in the B60 substrate amount due to the presence or absence of the addition of the metabolism inhibitor)/the permeation time

[2] = tested on: intestinal epithelial cells; assay: Fg of midazolam calculated from the permeation test (Expression 1 / Expression 2); type: in vitro ADME, human; conditions: cells of Example 4
Procedure: Fg=(the B60 substrate amount+the cell 60 substrate amount)/(the B60 substrate amount +cell 60 substrate amount+the total 60 metabolite amount) (Expression 1)
The B60 substrate amount: The mass of the substrate permeated to the B side 60 minutes after the test substance serving as a substrate was added to the A side.
The cell 60 substrate amount: The mass of the substrate accumulated in the cells 60 minutes after the test substance serving as a substrate was added to the A side.
The total 60 metabolite amount: Total amount of the metabolite accumulated on the A, on the B side, and in the cells 60 minutes after the test substance serving as a substrate was added to the A side.

[3] = tested on: small intestinal tissue of a living body; conditions: in vitro; cited from earlier work
[4] = small intestine of a living body; cited from earlier work

Cc1ncc2n1-c1ccc(Cl)cc1C(c1ccccc1F)=NC2 [midazolam]
Papp A→B at 60 min, 10 μmol/L ([1]; cells of Comparative Example 1): 48 ×10⁻⁶ cm/s | Papp A→B at 60 min, 10 μmol/L ([1]; cells of Example 1): 30 ×10⁻⁶ cm/s | Papp A→B at 60 min, 10 μmol/L ([1]; cells of Example 2): 32 ×10⁻⁶ cm/s | Papp A→B at 60 min, 10 μmol/L ([1]; cells of Example 3): 33 ×10⁻⁶ cm/s | Papp A→B at 60 min, 10 μmol/L ([1]; cells of Example 4): 31 ×10⁻⁶ cm/s | Papp at 60 min, 10 μmol/L ([1]; cells of Example 4, scaling factor x = 2): 21.9 ×10⁻⁶ cm/s | Papp at 60 min, 10 μmol/L ([1]; cells of Example 4, scaling factor x = 3): 15.2 ×10⁻⁶ cm/s | Papp at 60 min, 10 μmol/L ([1]; cells of Example 4, scaling factor x = 4): 8.6 ×10⁻⁶ cm/s | Papp at 60 min, 10 μmol/L ([1]; cells of Example 4, scaling factor x = 5): 1.9 ×10⁻⁶ cm/s | Papp at 60 min, 10 μmol/L ([1]; cells of Example 4, scaling factor x = 5.2): 0.6 ×10⁻⁶ cm/s | Papp A→B at 60 min, 10 μmol/L ([1]; cells of Example 5): 31 ×10⁻⁶ cm/s | Fg simply calculated by Expression 1 ([2]; no scaling factor): 0.83 | Fg after correction ([2]; scaling factor x = 1): 0.83 | Fg after correction ([2]; scaling factor x = 2): 0.70 | Fg after correction ([2]; scaling factor x = 4): 0.54 | Fg after correction ([2]; scaling factor x = 6): 0.44 | Fg after correction ([2]; scaling factor x = 8): 0.37 | Fg after correction ([2]; scaling factor x = 10): 0.32 | Fg after correction ([2]; scaling factor x = 12): 0.28 | apparent permeability coefficient [3]: 5 ×10⁻⁶ cm/s | Fa (absorption rate in the intestinal tract) [4]: 1.0
